# Where two headings read alike, the source gives them in different places.
# Experiments:
# [1] = Plasma protein binding (RED), mouse; format: in vitro ADME
# Protocol: (§1) Rapid Equilibrium Dialysis device (RED) is a 96-well formatted dialysis with disposable inserts and Teflon base design providing short incubation time. The membrane in RED physically separates of bound and free drug. After 4 hr incubation at 37° C., drug concentrations at both plasma (e.g., human, rat, dog, monkey, mouse) and pH 7.4 PBS buffer sides was quantitated by LC/MS/MS and % bound drug in plasma was calculated.
# CYP2C19 = CYP2C19 (Homo sapiens, UniProt P33261); test: Cytochrome P450 inhibition, CYP2C19
# Sequence of CYP2C19 (P33261 whole entry): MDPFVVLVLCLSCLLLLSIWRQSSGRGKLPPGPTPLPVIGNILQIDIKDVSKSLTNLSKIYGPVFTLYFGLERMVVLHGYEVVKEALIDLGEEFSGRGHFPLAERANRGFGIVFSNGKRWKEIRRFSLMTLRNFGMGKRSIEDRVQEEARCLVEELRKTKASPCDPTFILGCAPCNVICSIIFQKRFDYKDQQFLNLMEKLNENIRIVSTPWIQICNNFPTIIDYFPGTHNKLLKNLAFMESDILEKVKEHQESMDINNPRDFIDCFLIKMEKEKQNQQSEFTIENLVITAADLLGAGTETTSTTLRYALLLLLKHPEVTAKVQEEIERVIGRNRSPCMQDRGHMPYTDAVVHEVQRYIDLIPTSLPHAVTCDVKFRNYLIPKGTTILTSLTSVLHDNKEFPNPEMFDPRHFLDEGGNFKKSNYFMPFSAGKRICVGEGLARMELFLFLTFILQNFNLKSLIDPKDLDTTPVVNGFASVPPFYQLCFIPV
# From the text: (§2) This cytochrome P450 high throughput IC50 inhibition assay is utilized for screening potential inhibitors of the 5 major human CYP isozyme catalytic activities (CYP3A4, 2D6, 2C9, 2C19, and 1A2).
# CYP1A2 = molecular target: T1, CYP1A2 (Homo sapiens, UniProt P05177); test: Cytochrome P450 inhibition, CYP1A2
# T1 sequence (P05177 1-516): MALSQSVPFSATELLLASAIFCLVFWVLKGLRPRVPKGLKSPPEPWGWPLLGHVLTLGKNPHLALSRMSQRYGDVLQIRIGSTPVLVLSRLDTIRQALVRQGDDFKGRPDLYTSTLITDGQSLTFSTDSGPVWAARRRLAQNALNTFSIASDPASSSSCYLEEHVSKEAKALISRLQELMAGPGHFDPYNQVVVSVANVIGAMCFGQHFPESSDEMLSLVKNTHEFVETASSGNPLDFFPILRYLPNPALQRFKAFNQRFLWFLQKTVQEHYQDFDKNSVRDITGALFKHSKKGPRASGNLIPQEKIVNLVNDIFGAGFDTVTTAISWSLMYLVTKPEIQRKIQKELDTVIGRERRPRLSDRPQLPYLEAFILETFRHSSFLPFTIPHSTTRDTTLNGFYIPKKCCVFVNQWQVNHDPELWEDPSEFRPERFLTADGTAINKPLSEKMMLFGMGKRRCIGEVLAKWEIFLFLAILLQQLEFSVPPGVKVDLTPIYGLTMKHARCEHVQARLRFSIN
# From the text: as §2
# [2] = Solubility in phosphate buffer; format: physicochemical; settings: for Sol.: Table 2, @ 7.4; for solubility at 16 hours: phosphate buffer
# Protocol: A stock solution for each test compound was prepared at 25 mM in DMSO. These were diluted into phosphate buffer and equilibrated for 16 hours at room temperature, and then filtered to remove precipitated compound. The UV absorbance of this equilibrated sample was compared to a single point reference standard.
# CYP2C9 = CYP2C9 (Homo sapiens, UniProt P11712); test: Cytochrome P450 inhibition, CYP2C9
# Sequence of CYP2C9 (P11712 whole entry): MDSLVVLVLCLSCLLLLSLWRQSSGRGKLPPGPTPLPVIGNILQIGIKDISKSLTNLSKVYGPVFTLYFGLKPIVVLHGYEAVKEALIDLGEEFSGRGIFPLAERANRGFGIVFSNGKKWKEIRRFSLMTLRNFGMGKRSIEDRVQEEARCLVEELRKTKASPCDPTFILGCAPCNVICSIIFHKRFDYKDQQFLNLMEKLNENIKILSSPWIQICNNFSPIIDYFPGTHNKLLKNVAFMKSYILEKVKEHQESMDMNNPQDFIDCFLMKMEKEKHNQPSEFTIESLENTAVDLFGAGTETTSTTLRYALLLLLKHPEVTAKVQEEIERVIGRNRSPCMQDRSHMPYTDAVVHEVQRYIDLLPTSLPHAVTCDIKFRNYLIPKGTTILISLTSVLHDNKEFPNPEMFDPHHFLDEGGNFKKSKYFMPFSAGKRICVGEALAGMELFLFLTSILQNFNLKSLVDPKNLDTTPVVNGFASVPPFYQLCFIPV
# From the text: as §2
# [3] = Microsomal stability, rat; format: in vitro ADME; settings: for Microsomal stability (CL) rat: Table 2; for CLint scaled: Example 12 chart
# Protocol: (§3) Liver microsomes and hepatocytes represent an in vitro surrogate for assessing the phase I/II metabolic stability of new discovery leads. Following the incubation of the compounds with microsomes or hepatocytes of different species (e.g., human, rat, dog, monkey, mouse), the samples were transferred to 96 well plates for quantitation using LC/MS/MS. The % of compound remaining was measured and used to calculate clearance and % hepatic blood flow.
# Schistosomes lavae = test: Screening against Schistosomes, larvae; format: cell-based; settings: Screening Data
# [4] = Plasma protein binding (RED), human; format: in vitro ADME
# Protocol: as §1
# Mouse PK study = format: in vivo; settings: for t/2 in mouse: Table 3
# Protocol: The rodent PK study designs provide reliable estimation of PK parameters using fewer animals. Often two routes, PO and IV, were included in the rodent PK study protocols with three subjects in each dosing group (often PO at 10 mg/kg and IV at 3 mg/kg).
# [5] = test system: Trypanosoma brucei rhodesiense strain STIB 900; test: Drug sensitivity assay against T. b. rhodesiense (Alamar blue); format: cell-based
# From the text: Trypanosoma brucei rhodesiense strain STIB 900, a clone of a population isolated in 1982 from a patient in Tanzania which is known to be susceptible to all currently used drugs was used in these assays. The bloodstream form trypomastigotes of this strain were maintained in supplemented Modified Eagle's Medium according to standard protocols (Hirumi H, Hirumi K, 1989. “Continuous cultivation of Trypanosoma brucei blood stream forms in a medium containing a low concentration of serum protein without feeder cell layers”. J Parasitol 75: 985-9).
# (§4) Drug sensitivity assays were performed in sterile 96-well microtiter plates, with or without serial drug dilutions. The compounds were tested at 7 concentrations (drug concentration ranging from 90 μg/ml to 0.123 μg/ml in 3-fold dilutions). The highest concentration for the test compounds was 90 μg/ml. Each drug is tested in duplicate. After 72 hours of incubation the plates were inspected microscopically to assure growth of the controls to determine the minimum inhibitory concentration (MIC), i.e., the lowest drug concentration at which no trypanosomes with normal morphology and motility can be seen compared to control wells. Cell viability is measured by Alamar blue staining and IC50 values were calculated.
# The bloodstream form trypomastigotes of the three strains are maintained according to standard protocols established at STI.
# as §4, with “are” for “were”, “The” for “The compounds were tested at 7 concentrations (drug concentration ranging from 90 μg/ml to 0.123 μg/ml in 3-fold dilutions). The”, “is” for “was”
# The preliminary screen used T. b. rhodesiense. The compounds were tested at 7 concentrations (drug concentration ranging from 90 μg/ml to 0.123 μg/ml in 3-fold dilutions).
# CYP3A4 = CYP3A4 (Homo sapiens, UniProt P08684); test: Cytochrome P450 inhibition, CYP3A4
# Sequence of CYP3A4 (P08684 whole entry): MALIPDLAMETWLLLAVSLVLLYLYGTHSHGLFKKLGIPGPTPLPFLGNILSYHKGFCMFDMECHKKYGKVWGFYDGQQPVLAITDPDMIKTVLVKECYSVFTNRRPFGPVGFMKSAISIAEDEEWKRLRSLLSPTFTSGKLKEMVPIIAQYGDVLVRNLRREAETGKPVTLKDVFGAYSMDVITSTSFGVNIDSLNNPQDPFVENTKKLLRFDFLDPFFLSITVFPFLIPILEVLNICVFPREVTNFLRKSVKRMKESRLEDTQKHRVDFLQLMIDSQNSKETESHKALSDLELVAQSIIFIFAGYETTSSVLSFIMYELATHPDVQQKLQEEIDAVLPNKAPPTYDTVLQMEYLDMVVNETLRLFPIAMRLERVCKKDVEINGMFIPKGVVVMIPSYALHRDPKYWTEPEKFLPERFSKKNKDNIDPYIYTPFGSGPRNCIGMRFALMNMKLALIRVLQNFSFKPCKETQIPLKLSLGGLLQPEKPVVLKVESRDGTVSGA
# From the text: as §2
# [6] = Hepatocyte stability, human; format: in vitro ADME; settings: for Hepatocyte stability (CL) human: Table 2; for CLint scaled: hepatocytes, Example 12 chart
# Protocol: as §3
# Mouse brain exposure = format: in vivo; settings: for AUC / Kp: Table 3; for AUC: mouse brain; for Kp: mouse, read-out: Mouse Brain exposure compared with blood AUC (%)
# Protocol: This was determined by harvesting brains at selected time points, weighing and extracting total tissue homogenate for LC/MS/MS analysis. The amount of test compound associated with the brain was calculated by subtracting that amount attributable to blood vessels (7%, times the blood exposure levels).
# L. donovani (axenic) = test: Screening against L. donovani (axenic); format: cell-based; settings: Leishmania donovani; Screening Data
# [7] = plasma, pH 7.4, Example 12 chart, mouse
# [8] = human, probe fluorometric substrates (not named)
# [9] = aqueous buffer, kinetic from dmso stock, Example 12 chart, pH 7.4
# [10] = plasma, pH 7.4, Example 12 chart, human
# [11] = Screening Data, read-out: IC50 T. b. rhod.
# [12] = Table 1, 72 hours incubation, Alamar blue, read-out: IC50 against T. b. rhodesiense (ug/mL) by STI
# [13] = Table 2, read-out: IC50 against T. b. rhodesiense (ug/mL) by STI
# [14] = Table 3, read-out: IC50 against T. brucei rhodesiense
# [15] = read-out: CYP IC50 2C19, Example 12 chart
# [16] = read-out: CYP IC50 1A2, Example 12 chart
# [17] = read-out: CYP IC50 2C9, Example 12 chart
# [18] = read-out: CYP IC50 3A4, Example 12 chart
"Plasma protein binding (%) mouse ([1]; Table 2, mouse plasma) [%]",Sol. [2],"solubility at 16 hours [2, 9] [µg/mL]",Microsomal stability (CL) rat [3] [mL/min/kg],CLint scaled ([3]; liver microsomes) [mL/min/kg],"IC50 [5, 11] [µM]","IC50 [5, 12] [µg/mL]","IC50 [5, 13] [µg/mL]",Hepatocyte stability (CL) human [6] [mL/min/kg],CLint scaled [6] [mL/min/kg],IC50 (L. donovani (axenic)) [µM],Compound,IC50 (Schistosomes lavae) [µM],t/2 in mouse (Mouse PK study) [h],IC50 (CYP2C19) [µM],IC50 (CYP2C19; [15]) [µM],IC50 (CYP1A2) [µM],IC50 (CYP1A2; [16]) [µM],IC50 (CYP2C9) [µM],IC50 (CYP2C9; [17]) [µM],IC50 (CYP3A4) [µM],further results
47.7,>47 (@ 7.4) ug/ml,> 47,<11,< 7.7,1.39,0.489,0.489,<4.2,< 1.7,> 85,CN(C/C=C\CN)C[C@H]1O[C@@H](n2cnc3c(N)ncnc32)[C@H](F)[C@@H]1O (stereo in doubt) [Compound 1],> 10,1.93,–,–,–,–,–,–,–,"fraction unbound at 4 hr [1, 7]: 0.523; IC50 (CYP2C19; [8]): > 5 µM; IC50 (CYP1A2; [8]): > 5 µM; IC50 (CYP2C9; [8]): > 5 µM; Plasma Protein Binding % human ([4]; Table 2, human plasma): 23.3%; fraction unbound at 4 hr [4, 10]: 0.767; IC50 [5, 14]: 0.489 µg/mL; IC50 (CYP3A4; [8]): > 5 µM; logD (LogD): -1.3; AUC (Mouse brain exposure): 26 ng·h/mL; Kp (Mouse brain exposure; brain relative to blood): 0.0016"
37.2,>47 (@ 7.4) ug/ml,> 47,<11,< 7.7,2.59,0.908,0.908,<4.2,< 1.7,> 85,CN(C/C=C\CN)C[C@H]1O[C@@H](n2cnc3c(N)ncnc32)[C@@H](F)[C@@H]1O [Compound 2],> 10,–,> 5,> 5,> 5,> 5,> 5,> 5,> 5,"fraction unbound at 4 hr [1, 7]: 0.628; Plasma Protein Binding % human ([4]; Table 2, human plasma): 32.2%; fraction unbound at 4 hr [4, 10]: 0.678; IC50 (CYP3A4; [18]): > 5 µM; logD (LogD): -1.2"

# More lines, now with the values behind:
Compound,"Plasma protein binding (%) mouse ([1]; Table 2, mouse plasma) [%]",Sol. [2],"solubility at 16 hours [2, 9] [µg/mL]",Microsomal stability (CL) rat [3] [mL/min/kg],CLint scaled ([3]; liver microsomes) [mL/min/kg],"IC50 [5, 11] [µM]","IC50 [5, 12] [µg/mL]","IC50 [5, 13] [µg/mL]",Hepatocyte stability (CL) human [6] [mL/min/kg],CLint scaled [6] [mL/min/kg],IC50 (L. donovani (axenic)) [µM],IC50 (Schistosomes lavae) [µM],t/2 in mouse (Mouse PK study) [h],IC50 (CYP2C19) [µM],IC50 (CYP2C19; [15]) [µM],IC50 (CYP1A2) [µM],IC50 (CYP1A2; [16]) [µM],IC50 (CYP2C9) [µM],IC50 (CYP2C9; [17]) [µM],IC50 (CYP3A4) [µM],further results
Cc1nc2c(N)ncnc2n1[C@@H]1O[C@H](CN(C)C/C=C\CN)[C@@H](O)[C@H]1O (stereo in doubt) [Compound 4],–,>49 (@ 7.4) ug/ml,> 49,<11,< 7.7,0.001,0.0004,0.0004,<4.2,< 1.7,> 85,> 10,7.43,> 5,> 5,> 5,> 5,> 5,> 5,> 5,"Plasma protein binding (%) mouse ([1]; Example 12 chart, mouse): 35.7%; fraction unbound at 4 hr ([1]; pH 7.4, Table 2, mouse plasma): 0.643; Plasma Protein Binding % human ([4]; Example 12 chart, human): 41.2%; protein binding relative to MDL73811 ([4]; compared with MDL73811 (human and mouse plasma in Table 2)): approximately half; fraction unbound at 4 hr ([4]; pH 7.4, Table 2, human plasma): 0.588; t/2, fold greater than that for MDL-73811 (Mouse PK study; vs MDL-73811): ~3 fold; IC50 [5, 14]: 0.0004 µg/mL; IC50 ([5]; read-out: IC50 against T. b. rhodesiense): 0.0004 µg/mL; IC50 (CYP3A4; [18]): > 5 µM; logD (LogD; Example 12 chart): −1.4; AUC (Mouse brain exposure): 1180 ng·h/mL; Kp (Mouse brain exposure; brain relative to blood): 0.066; percentage of brain blood barrier penetration (compared with MDL-73811) (Mouse brain exposure; text b82): higher percentage of brain blood barrier penetration; mouse brain exposure, fold greater than for MDL 73811 (Mouse brain exposure; vs MDL73811): ~4 fold"
CN(C/C=C\CN)C[C@H]1O[C@@H](n2cnc3c(N)nc(Cl)nc32)[C@H](O)[C@@H]1O [Compound 3],42.2,>51 (@ 7.4) ug/ml,> 51,<11,< 7.7,1.76,0.676,0.676,<4.2,< 1.7,> 85,> 10,1.66,> 5,> 5,> 5,> 5,> 5,> 5,> 5,"fraction unbound at 4 hr [1, 7]: 0.578; Plasma Protein Binding % human ([4]; Example 12 chart, human): 39%; fraction unbound at 4 hr ([4]; pH 7.4, Table 2, human plasma): 0.61; IC50 (CYP3A4; [18]): > 5 µM; AUC (Mouse brain exposure): 170 ng·h/mL; Kp (Mouse brain exposure; brain relative to blood): 0.0077"
"CN(C/C=C\CN)CC1OC(n2cnc3c(N)ncnc32)C(O)C1O (centres unmarked) [MDL-73811, reference compound]",–,>47 (@ 7.4) ug/ml,–,<11,–,0.011,0.004,0.004,<4.2,< 1.7,> 85,> 10,2.48,> 5,> 5,> 5,> 5,> 5,> 5,> 5,"Plasma protein binding (%) mouse ([1]; Example 12 chart, mouse): 69.8%; fraction unbound ([1]; pH 7.4, Table 2, mouse plasma): 0.302; solubility [2, 9]: > 47 µg/mL; CLint scaled ([3]; microsomes): < 7.7 mL/min/kg; Plasma Protein Binding % human ([4]; Example 12 chart, human): 72.9%; fraction unbound ([4]; pH 7.4, Table 2, human plasma): 0.271; IC50 [5, 14]: 0.004 µg/mL; IC50 (CYP3A4; human): > 5 µM; AUC (Mouse brain exposure; in vivo): 280 ng·h/mL; Kp (Mouse brain exposure; in vivo): 0.0134"

# Reference: patent US8633168B2, “Inhibitors of S-adenosyl-L-methionine decarboxylase” (Genzyme Corporation, priority 2007, dated 2014)
